Experimental data as given in patent US11123408B2, “Compositions and methods for treating nonsteroidal anti-inflammatory drug (NSAID) associated coagulopathy, thrombocytopenia, glanzmann's thrombasthenia, and/or thrombosis” (YALE UNIVERSITY, priority 2011, dated 2021).
“Also recorded” adds a separate entry of the source.

Tests used:
[1] = system: platelets in platelet rich plasma; assay: Light transmission aggregometry (LTA) in platelet rich plasma; format: cell-based, human; details: for inhibition of NPP4/Ap3A-promoted platelet aggregation (qualitative): increasing antagonist concentrations; for platelet aggregation response of enzyme in the presence of 80 μM Ap3A (qualitative): enzyme 50-200 nM
Protocol: (§1) Whole blood from healthy voluntary donors was collected in accordance with an IRB-approved protocol into blue top vacutainer tubes containing 3.2% sodium citrate. Blood was centrifuged at 1000 RPM for 10 minutes at room temperature to collect platelet rich plasma (PRP). PRP in the supernatant was then transferred to fresh tubes, and the remainder of the specimen was centrifuged at 4000 RPM for 10 minutes to obtain platelet poor plasma (PPP). PRP was adjusted to a final platelet count of 250×10^6 platelets/mL with autologous PPP for use in aggregation studies. Potential donors were excluded if there was a history of a bleeding disorder or current anticoagulant use and donors were instructed to avoid NSAIDs for at least 7 days prior to donation. Approval for the human subjects involved in this research was sought and granted by the Committee for the Protection of Human Subjects, Dartmouth-Hitchcock Medical Center, where these studies were conducted in accordance with the Declaration of Helsinki.
(§2) Light transmission (i.e., optical) and lumi aggregometry were performed on up to four samples from the same individual simultaneously with a Chrono-Log Model 700 Whole Blood/Optical Lumi Aggregometer (Chrono-Log Corporation, Havertown, Pa.) using procedures provided by the manufacturer that are briefly summarized here.
(§3) Platelet aggregation was determined by measuring the change in light transmittance of stirred PRP over time after addition of various agonists. Prior to each experiment the aggregometer was standardized to reflect 100% and 0% light transmittance with PPP and PRP, respectively, from the donor whose platelets were used in each specific experiment. 500 μL PRP was added to cuvettes containing a magnetic stir bar and allowed to pre-warm to 37° C. in the aggregometer wells for 3 minutes prior to initiating aggregation reactions which were then conducted at 37° C. Aggregation reactions were initiated by direct addition of agonists and/or enzymes to warmed, stirred PRP, and were monitored for an increase in light transmittance for 10 minutes. The increase in light transmittance is directly proportional to the amount of aggregation and is amplified and digitized into a computer (HP Compaq, Hewlett-Packard, Palo Alto, Calif.) with the AGGRO/LINK8 for Windows software (Chrono-Log Corporation, Havertown, Pa.) to generate aggregation curves. […] The platelet aggregometry experiments for all concentrations of MRS 2395 (including the 0 μM point) were conducted with the plasma adjusted to a final concentration of 10% DMSO to solubilize the inhibitor.

[2] = system: platelets in platelet rich plasma; assay: Lumi aggregometry (extracellular ATP, dense granule release) simultaneously with LTA; format: cell-based, human
Protocol: as §1, §2, §3
In a subgroup of experiments, lumi aggregometry was used to assay the levels of extracellular ATP simultaneously with LTA. Lumi aggregometry measures ATP in the extracellular space over time using a sensitive luminescent assay employing firefly luciferin-luciferase (CHRONO-LUME™ reagent, Chrono-Log Corporation, Havertown, Pa.). ATP binds to luciferin-luciferase and generates light that is then amplified by a high-gain photomultiplier tube in the lumi aggregometer and is measured simultaneously with the optical change in light transmittance caused by platelet aggregation. In experiments in which lumi aggregometry was performed, 450 μL of PRP was transferred to cuvettes containing magnetic stir bars and allowed to pre-warm to 37° C. in the aggregometer wells for 3 minutes. […] Reactions were initiated by the addition of agonists and/or enzymes to warmed PRP and CHRONOLUME′ reagent and were monitored for light generation. […]

[3] = Ap3A hydrolysis by NPP enzymes (linked malachite green assay, absorbance change at 259 nm, HPLC); format: biochemical; details: linked assay or steady state enzymatic studies
Protocol: (§4) NPP4 nucleotide substrates were identified by directly detecting the free phosphate (Pi) product using malachite green (ADP substrate) or by a linked hydrolysis assay with alkaline phosphatase combined with malachite green (lipid substrates and nucleotide substrates without terminal P1) to measure released Pi. 50 μM substrate P1 equivalents (e.g. 25 μM ADP) were treated with 50 nM NPP4 for 1 hr 37 min (lipids) or 3 hr 15 min (all other substrates). For substrates without terminal phosphates, 10 units of calf intestinal alkaline phosphatase (M0290S, 10,000 units/mL, New England Biolabs, Ipswich, Mass.) was added for a final reaction volume of 50 μL. 100 μL of malachite green (BIOMOL GREEN™, Enzo Life Sciences, Plymouth Meeting, Pa.) was added to quench the reactions. The amount of phosphate released was measured by absorbance at 620 nm by a Biotek Synergy Mx plate reader (Winooski, Vt.) in 96-well plates (3679, Corning Inc., Corning, N.Y.) and compared against a phosphate standard curve.
The kinetics of the steady state Ap3A/Ap4A cleavage by NPP4 was measured from time courses of absorbance change at 259 nm using a UV spectrophotometer with a 0.1 cm optical path length cuvette or a stopped-flow device with a 0.2 cm optical path length cell. The enzymology reactions in 50 mM Tris pH 8.0, 140 mM NaCl, 5 mM KCl, 1 mM MgCl2 and 1 mM CaCl2 were started by addition of 1 μM NPP4 to varying concentrations of Ap3A/Ap4A (up to 800 μM) solution (UV spectrophotometer) or by rapid mixing of NPP4 and Ap3A/Ap4A (stopped-flow). The substrate concentrations higher than 800 μM have absorption too high to be measured by a UV spectrophotometer and stopped-flow, and were therefore measured by HPLC. […] Therefore, the rate of a product production or enzyme turnover measured by the absorption change assay can be calculated by the rate of absorption change
[formula] according to the following formula;
[formula] where Δl is optical path length. The following absorption coefficients were used: Ap3A: 25.75 mM^−1 cm^−1. Ap4A: 25.4 mM^−1 cm^−1. AMP, ADP, and ATP: 15.4 mM^−1 cm^−1. ADP Receptor Inhibitor Assay for NPP4 Inhibition
The HPLC protocol used to measure Ap3A/Ap4A cleavage by NPP4 and for product identification is modified from that of Stocchi et al. (1985, Anal Biochem 146:118-24). The reactions containing varying concentrations of Ap3A/Ap4A in the same buffer as in the absorbance change assay were started by addition of 0.2-1 μM NPP4 and quenched at various time points by equal volume of 3 M formic acid, or 0.5 N KOH and re-acidified by glacial acetic acid to pH 6. The quenched reaction solution was diluted systematically and loaded a HPLC system (Waters, Milford Mass.) and substrates and products were monitored by UV absorbance at 254 or 259 nm. Substrates and products were separated on a C18, 5 μm 250×4.6 mm HPLC column (Higgins Analytical, Mountain View, Calif.), using 15 mM ammonium acetate pH 6.0 solution, with a 0% to 10% (or 20%) methanol gradient. The products and substrate were quantified according to the integration of their correspondent peaks and the formula:
[formula] where [substrate]0 is the initial substrate concentration. The extinction coefficients of Ap3A, Ap4A, AMP, ADP and ATP used in the formula were the same as those used in absorption change assay. If monitoring at 254 nm, substrate and product standards run on the same day as the reactions were used to convert integrated product/substrate peak areas to concentrations. […]

[4] = Diadenosine polyphosphate cleavage (linked assay, HPLC, absorbance); format: biochemical; details: HPLC or absorbance / real time spectrophotometric assay
Protocol: as §4, with “100 μL of malachite green (BIOMOL GREEN™, Enzo Life Sciences, Plymouth Meeting, Pa.) was added to quench the reactions.” left out
The kinetics of the steady state Ap3A/Ap4A cleavage by NPP4 was measured from time courses of absorbance change at 259 nm using a UV spectrophotometer with a 0.1 cm optical path length cuvette or a stopped-flow device with a 0.2 cm optical path length cell. […] The substrate concentrations higher than 800 μM have absorption too high to be measured by a UV spectrophotometer and stopped-flow, and were therefore measured by HPLC. […]

## Nc1ncnc2c1ncn2[C@@H]1O[C@H](COP(=O)(O)OP(=O)(O)OP(=O)(O)OP(=O)(O)OC[C@H]2O[C@@H](n3cnc4c(N)ncnc43)[C@H](O)[C@@H]2O)[C@@H](O)[C@H]1O [Ap4A]
[1]; 80 μM Ap4A added to 100 nM NPP4 and 80 μM Ap3A
  effect of Ap4A on Ap3A/NPP4-induced platelet aggregation: roughly half of the aggregation; also recorded: intermediate degree of platelet aggregation
[1]; 80 μM Ap4A alone or in the presence of 100 nM NPP4
  platelet aggregation response to Ap4A (qualitative): no apparent positive effect on aggregation; also recorded: does not trigger even a primary wave of aggregation
[2]; 40 μM Ap4A with 100 nM NPP4
  platelet aggregation and granule release, Ap4A with NPP4 (qualitative): no measurable platelet aggregation; also recorded: no platelet aggregation and no granule release

## CNc1ncnc2c1ncn2[C@H]1C[C@H](OP(=O)(O)O)[C@@H](COP(=O)(O)O)O1 [MRS 2179]
[1]; 50 nM NPP4, 80 μM Ap3A
  inhibition of NPP4/Ap3A-promoted platelet aggregation (qualitative): concentration-dependent inhibition of platelet aggregation; also recorded: dose-dependent inhibition of the platelet aggregation response

## CNc1nc(Cl)nc2c1ncn2CC(COC(=O)C(C)(C)C)COC(=O)C(C)(C)C [MRS 2395]
[1]; 50 nM NPP4, 80 μM Ap3A
  inhibition of NPP4/Ap3A-promoted platelet aggregation (qualitative): concentration-dependent inhibition of platelet aggregation; also recorded: dose-dependent inhibition of the platelet aggregation response
[1]; 200 μM antagonist, 50 nM NPP4, 80 μM Ap3A, 10% DMSO
  inhibition of NPP4/Ap3A-promoted platelet aggregation at 200 μM: complete inhibition

## diadenosine triphosphate [Ap3A]
[1]; 100 nM NPP4, dose response of Ap3A
  platelet aggregation response to Ap3A in the presence of 100 nM NPP4 (qualitative): induces both the primary and secondary waves of aggregation in a concentration-dependent fashion; also recorded: robust platelet aggregation
[1]; 40 μM Ap3A in the presence of 100 nM NPP4
  maximum aggregation: 70%
[1]; Ap3A 80 μM or higher in the presence of 100 nM NPP4
  maximum aggregation: greater than 80%
[1]; agent alone in PRP (Ap3A up to 160 μM; NPP4 100 nM)
  platelet aggregation response, agent alone (qualitative): triggers a primary wave of aggregation without degranulation, followed by rapid disaggregation; also recorded: only a primary wave of aggregation followed by rapid platelet disaggregation; also recorded: triggers a primary wave of aggregation, which is followed by rapid disaggregation
[2]; 40 μM Ap3A alone in PRP
  platelet aggregation and luminescence, Ap3A alone (qualitative): primary wave of aggregation, followed by rapid disaggregation

B1: NPP4-T70A: inactive mutant NPP4 extracellular domain, catalytic threonine 70 mutated to alanine (protein, UniProt Q9Y6X5 16-407, looked up, variant T70A)
extracellular domain: FRSDSSSSLPPKLLLVSFDGFRADYLKNYEFPHLQNFIKEGVLVEHVKNVFITKAFPNHYSIVTGLYEESHGIVANSMYDAVTKKHFSDSNDKDPFWWNEAVPIWVTNQLQENRSSAAAMWPGTDVPIHDTISSYFMNYNSSVSFEERLNNITMWLNNSNPPVTFATLYWEEPDASGHKYGPEDKENMSRVLKKIDDLIGDLVQRLKMLGLWENLNVIITSDHGMTQCSQDRLINLDSCIDHSYYTLIDLSPVAAILPKINRTEVYNKLKNCSPHMNVYLKEDIPNRFYYQHNDRIQPIILVADEGWTIVLNESSQKLGDHGYDNSLPSMHPFLAAHGPAFHKGYKHSTINIVDIYPMMCHILGLKPHPNNGTFGHTKCLLVDQWCINLPEA
modifications: extracellular domain
[3]
  Ap3A cleavage / hydrolysis (qualitative): incapable of Ap3A hydrolysis
[1]
  platelet aggregation response of enzyme in the presence of 80 μM Ap3A (qualitative): fails to induce aggregation
[1]; listed as T70A mutant of NPP4
  platelet aggregation response of enzyme in the presence of 80 μM Ap3A (qualitative): no effect on platelet aggregation
[2]; 100 nM enzyme with 40 μM Ap3A
  platelet aggregation and dense granule (ATP) release, enzyme with Ap3A (qualitative): A similar pattern is observed
[4]
  diadenosine polyphosphate cleavage (qualitative): did not cleave diadenosine polyphosphates
